Data reported in paper PMC6220272, “Scaffold-Hopping from Synthetic Drugs by Holistic Molecular Representation” (Scientific Reports, 2018).

What was measured:
Format in all cases: cell-based
[1] = target: T1, human RXRγ ligand binding domain (Gal4 hybrid receptor) (Homo sapiens, UniProt P48443); assay: Gal4 hybrid reporter gene assay RXRγ; details: HEK293T cells, n ≥ 4, read-out: RXRγ EC50 ± SEM
T1 construct: expressed in transfected cells; host or cells: HEK293T
T1 sequence (P48443 231-459 limits assumed): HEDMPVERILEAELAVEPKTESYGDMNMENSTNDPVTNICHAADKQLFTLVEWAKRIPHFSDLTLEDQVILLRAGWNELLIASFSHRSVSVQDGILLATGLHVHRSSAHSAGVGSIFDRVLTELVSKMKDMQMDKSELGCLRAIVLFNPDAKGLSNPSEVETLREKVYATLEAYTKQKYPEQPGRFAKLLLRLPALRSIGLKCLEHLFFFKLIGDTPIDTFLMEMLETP
Procedure: The 20 top-ranked synthetic compounds were selected and tested in vitro for their modulatory activity on RXR (Supplementary Table 1). Compounds were tested in specific hybrid reporter gene assays for RXRα, RXRβ and RXRγ modulation[39]–[41]. These assays rely on a constitutively expressed hybrid receptor composed of the respective human RXR ligand binding domain and the DNA binding domain of the Gal4 receptor from yeast. A Gal4 responsive firefly luciferase was used as reporter gene and constitutively expressed renilla luciferase served as internal control for transfection efficiency and test compound toxicity. All selected compounds were tested at 50 µM concentration on RXRα and for active compounds (Supplementary Fig. 1), dose response curves were recorded on all three RXR subtypes.
(§1) The Gal4 hybrid reporter gene assays were conducted as reported previously[39]–[41]. pFA-CMV-based constructs comprising the ligand binding domain of the human nuclear receptor in question were used as expression plasmids for the chimera receptors. pFR-Luc (Stratagene) served as reporter plasmid and pRL-SV40 (Promega) for normalization of transfection efficiency and cell growth. The assays were conducted in 96-well format in HEK293T cells that were cultured as described previously[39]–[41]. Transient transfection was carried out using Lipofectamine LTX reagent (Invitrogen) according to the manufacturer’s protocol. After transfection and incubation with test compounds (12–14 h), cells were assayed for luciferase activity using Dual-Glo™ Luciferase Assay System (Promega) according to the manufacturer’s protocol. Luminescence was measured with an Infinite M200 luminometer (Tecan Deutschland GmbH). All hybrid assays were validated with reference agonists (PPARα: GW7647; PPARγ: pioglitazone; PPARδ: L165,041; LXRα/β: T0901317; FXR: GW4064; RXRs: bexarotene; RARs: tretinoin; VDR: calcitriol; CAR: CITCO; PXR: SR12813) which yielded EC50 values in agreement with literature. The assays were conducted in duplicates with at least two independent repeats and for active compounds repeated without hybrid receptor coding DNA for every test compound at the highest tested concentration to exclude unspecific effects.
Supplementary Figure 2. Dose-response curves for RXRα activation. Compounds were tested in specific hybrid reporter gene assays for RXRα, RXRβ and RXRγ modulation.^1–3 These assays rely on a constitutively expressed hybrid receptor composed of the respective human RXR ligand binding domain and the DNA binding domain of the Gal4 receptor from yeast. A Gal4 responsive firefly luciferase was used as reporter gene and constitutively expressed renilla luciferase served as internal control for transfection efficiency and test compound toxicity. […]

[2] = target: T2, farnesoid X receptor [FXR] (Homo sapiens, UniProt Q96RI1); assay: Gal4 hybrid reporter gene assay FXR (selectivity profiling)
T2 construct: expressed in transfected cells; host or cells: HEK293T
T2 sequence (Q96RI1 262-486 limits assumed): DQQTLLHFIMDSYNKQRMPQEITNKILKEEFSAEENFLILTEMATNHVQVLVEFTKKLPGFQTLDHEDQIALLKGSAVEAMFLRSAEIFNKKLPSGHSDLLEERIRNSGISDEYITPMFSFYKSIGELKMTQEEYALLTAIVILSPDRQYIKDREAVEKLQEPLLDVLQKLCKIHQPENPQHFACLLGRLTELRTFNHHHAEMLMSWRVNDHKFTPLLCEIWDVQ
Procedure: (§2) Moreover, 7 was characterized for its ability to modulate RXR target gene expression under more physiological conditions. Hepatoma cells (HepG2) were incubated with 7 (30 µM) or reference RXR agonist bexarotene (9, 1 µM) for eight hours and mRNA expression of RXR regulated genes ATP-binding cassette transporter A1 (ABCA1), angiopoietin like protein 4 (ANGPTL4) and apolipoprotein E (ApoE) was analysed by quantitative real-time PCR.
as §1, with “All hybrid assays were validated with reference agonists (PPARα: GW7647; PPARγ: pioglitazone; PPARδ: L165,041; LXRα/β: T0901317; FXR: GW4064; RXRs: bexarotene; RARs: tretinoin; VDR: calcitriol; CAR: CITCO; PXR: SR12813) which yielded EC50 values in agreement with literature. The assays were conducted in duplicates with at least two independent repeats and for active compounds repeated without hybrid receptor coding DNA for every test compound at the highest tested concentration to exclude unspecific effects.” left out

[3] = target: T3, constitutive androstane receptor [CAR] (Homo sapiens, UniProt Q14994); assay: Gal4 hybrid reporter gene assay CAR (selectivity profiling)
T3 construct: expressed in transfected cells; host or cells: HEK293T
T3 sequence (Q14994 109-352 limits assumed): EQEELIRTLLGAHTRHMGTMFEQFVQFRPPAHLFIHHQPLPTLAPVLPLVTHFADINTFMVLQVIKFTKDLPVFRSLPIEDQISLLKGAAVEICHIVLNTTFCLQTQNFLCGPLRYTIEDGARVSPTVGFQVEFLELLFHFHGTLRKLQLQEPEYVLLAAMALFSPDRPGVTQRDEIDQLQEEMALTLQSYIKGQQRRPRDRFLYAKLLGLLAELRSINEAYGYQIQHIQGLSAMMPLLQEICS
Procedure: as §2
as §1, with “All hybrid assays were validated with reference agonists (PPARα: GW7647; PPARγ: pioglitazone; PPARδ: L165,041; LXRα/β: T0901317; FXR: GW4064; RXRs: bexarotene; RARs: tretinoin; VDR: calcitriol; CAR: CITCO; PXR: SR12813) which yielded EC50 values in agreement with literature. The assays were conducted in duplicates with at least two independent repeats and for active compounds repeated without hybrid receptor coding DNA for every test compound at the highest tested concentration to exclude unspecific effects.” left out

EC50 [1]: 28.2 ± 0.1 µM | activity on FXR [2]: no activity | activity on CAR [3]: no activity
Structure (SMILES): CC(C)(C)c1cc(/C=N/NC(=O)c2ccc(N)cc2)cc(C(C)(C)C)c1 [Compound 7]
